The values that follow come from patent US20100267803A1, “Regulators Of Fat Metabolism As Anti-Cancer Targets” (The Research Foundation of State University Of New York, priority 2008, published 2010).

In the series the test system is NR1D1. Nature of the series: Immunoblot of NR1D1 protein after shRNA. It is filed as cell-based, human. Particulars: after shRNA transfection. From the text: Cell viability—apoptosis assays. […] At least 30 fields were imaged per single experiment. […] Immunoblotting. […] PCR reaction was run using standard conditions.
Background: Immunoblotting shows a protein as a band on a membrane.

In the case of “NR1D1 shRNA: shRNA, mature sequence GGCATGGTGTTACTGTGTA (shRNA)”, the NR1D1 protein levels entry is “decreased protein levels”.
